Paper PMC8744338, “Luteolin increases susceptibility to macrolides by inhibiting MsrA efflux pump in Trueperella pyogenes” (Veterinary Research, 2022)
pKd: −log10 of the molar value.

Target: T1, MsrA efflux pump (His-MsrA) (Staphylococcus epidermidis, UniProt P23212)
T1 construct: macrolide ABC-F MsrA of staphylococcal type, not methionine sulfoxide reductase
Assay: surface plasmon resonance (Biacore T200, His-MsrA captured on NTA chip)
Type: binding
Conditions: PBS-P running buffer; luteolin 12.5-400 μM

T1 sequence (P23212 whole entry): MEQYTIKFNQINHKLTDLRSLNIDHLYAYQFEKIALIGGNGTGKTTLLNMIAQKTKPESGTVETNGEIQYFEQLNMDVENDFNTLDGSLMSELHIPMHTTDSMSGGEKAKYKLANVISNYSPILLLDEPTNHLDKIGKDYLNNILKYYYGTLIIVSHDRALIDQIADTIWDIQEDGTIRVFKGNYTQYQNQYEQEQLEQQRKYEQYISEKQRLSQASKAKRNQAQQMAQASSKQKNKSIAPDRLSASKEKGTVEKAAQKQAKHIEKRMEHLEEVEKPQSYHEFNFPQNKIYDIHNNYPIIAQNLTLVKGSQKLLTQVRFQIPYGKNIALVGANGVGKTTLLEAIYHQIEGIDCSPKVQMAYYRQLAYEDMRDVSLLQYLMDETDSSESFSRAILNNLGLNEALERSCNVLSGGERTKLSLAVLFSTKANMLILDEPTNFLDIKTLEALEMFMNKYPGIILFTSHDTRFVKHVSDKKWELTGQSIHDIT

`O=c1cc(-c2ccc(O)c(O)c2)oc2cc(O)cc(O)c12` [luteolin] gave a pKd of 4.19.
